# Laboratory results taken from EP0486595B1, “Use of a coleus extract for skin pigmentation” (LVMH RECHERCHE, priority 1989, dated 1991).
# What was measured:
# [1] = tested on: mélanocytes murins; experiment: Melanin formation (melanogenesis stimulation) in cultured melanocytes, optical density at 475 nm; format: cell-based; settings: for Mélanine >g pour 10⁶ mélanocytes / A: concentration 10 >g/ml; for A: relative to β-MSH 2.10⁻⁸ M
# Description: (§1) Des mélanocytes murins sont cultivés sur un milieu approprié de manière classique.
# Au jour J = 0, le produit à tester est introduit dans le milieu de culture. […]
# (§2) On procède à la lecture de la densité optique sur un spectrophotomètre à 475 nm, ce qui permet d'évaluer la quantité de mélanine formée par comparaison à la densité optique d'une solution de mélanine de concentration connue.
# (§3) On procède également au comptage des cellules, et on calcule le taux de mélanine formée par cellule, par rapport à une culture témoin, sans addition de produit à tester.
# (§4) L'extrait Coleus 5B, selon l'exemple 5b est testé en comparaison avec de la forskoline seule, utilisée à concentration équivalente, et avec un témoin positif consistant en 10⁻⁸ mole de β-MSH. Ainsi, on introduit au jour J=0 dans le milieu de culture de la forskoline à la concentration de 0,1 >g/ml.
# (§5) Dans une autre culture, on introduit l'extrait de Coleus à une concentration déterminée de façon que le taux en forskoline soit également d'environ 0,1 >g/ml.
# (§6) L'activité A de la stimulation de la mélanogénèse par les produits selon l'invention est calculée par la formule suivante : [formula] dans laquelle les grandeurs q représentent les quantités de mélanine formée qp = culture recevant le produit à tester q₊ = culture recevant la βMSH qo = culture témoin ne recevant aucun produit.
# (§7) Par ailleurs, on a testé dans des conditions analogues les extraits de Coleus 5A et 5C respectivement obtenus par extraction par un mélange éthanol-eau 80:20 et par le dichlorométhane. On notera toutefois qu'il a été pris comme témoin positif une culture recevant de la β-MSH à la concentration de 2.10⁻⁸M.
# (§8) On opère comme à l'exemple 6. La combinaison IBMX plus extrait de Coleus est testée en comparaison avec l'IBMX et l'extrait de Coleus seul, de même qu'avec la β-MSH à la concentration de 2.10⁻⁸ M prise comme témoin positif.
# [2] = tested on: mélanocytes murins; experiment: as above; format: cell-based; settings: for Activité A en % / A: 100 by definition; for Mélanine >g pour 10⁶ mélanocytes / A: β-MSH 2.10⁻⁸ M
# Description: as §1
# Au jour J = 0, le produit à tester est introduit dans le milieu de culture.
# Au jour J = 5, on prélève les cellules que l'on isole par centrifugation et on récupère le culot cellulaire que l'on dissout dans de la soude 0,5 N.
# as §2, §3, §4, §5, §6, §7, §8
compound,measurement,setting,value
"C=C[C@@]1(C)CC(=O)[C@]2(O)[C@@]3(C)[C@@H](O)CCC(C)(C)[C@@H]3[C@H](O)[C@H](OC(C)=O)[C@@]2(C)O1 [Forskoline, forskoline]",Mélanine formée en >g pour 10⁶ cellules,"[1]; J = 5, forskoline 0,1 >g/ml, extract dosed to a forskoline level of about 0,1 >g/ml",92 ± 3 >g pour 10⁶ cellules
same,Activité A en %,"[1]; J = 5, forskoline level about 0,1 >g/ml, relative to β-MSH 10⁻⁸ mole = 100",151%
"CC(C)Cn1c(=O)n(C)c(=O)c2[nH]cnc21 [IBMX, 3-isobutyl-1-méthylxanthine]",Mélanine >g pour 10⁶ mélanocytes,[1]; J = 4,64 +/-0 >g pour 10⁶ mélanocytes
same,A,[1]; J = 4,+ 39
same,Mélanine >g pour 10⁶ mélanocytes,[1]; J = 5,103 +/-2 >g pour 10⁶ mélanocytes
same,A,[1]; J = 5,+ 35
β-MSH,Activité A en %,[2]; 2.10⁻⁸M,100%
same,Mélanine formée en >g pour 10⁶ cellules,"[2]; 2.10⁻⁸M, Table II positive control",179 ± 4 >g pour 10⁶ cellules
same,Mélanine >g pour 10⁶ mélanocytes,[2]; J = 4,119 +/-7 >g pour 10⁶ mélanocytes
same,A,[2]; J = 4,+ 100
same,Activité A en %,"[2]; J = 5, 10⁻⁸ mole de β-MSH",100%
same,Mélanine formée en >g pour 10⁶ cellules,"[2]; J = 5, positive control 10⁻⁸ mole de β-MSH",70 >g pour 10⁶ cellules
same,Mélanine >g pour 10⁶ mélanocytes,[2]; J = 5,200 +/-2 >g pour 10⁶ mélanocytes
same,A,[2]; J = 5,+ 100
